Results as given in ChEMBL document CHEMBL4261498, “Synthesis, characterization, and radioprotective activity of α,β-unsaturated aryl sulfone analogs and their Tempol conjugates” (Medchemcomm, 2017).
Activity calls are given as the source filed them. The calls are words filed in the database; no cut-off is given here.

Assays:
HUVEC [1] = assay: (§1) Radioprotective activity against 5 Gy gamma radiation-mediated cell damage in HUVEC assessed as necrotic cells at 1 uM preincubated for 2 hrs followed by 5 Gy gamma irradiation and measured after 24 hrs by annexin-V-FITC/propidium iodide staining-based flow cytometric method (reference value: 3.5%); type: functional, Homo sapiens
HUVEC [2] = assay: (§2) Radioprotective activity against 5 Gy gamma radiation-mediated cell damage in HUVEC assessed as viable cells at 1 uM preincubated for 2 hrs followed by 5 Gy gamma irradiation and measured after 24 hrs by annexin-V-FITC/propidium iodide staining-based flow cytometric method (reference value: 65.8%); type: functional; details: Homo sapiens, light or radiation study, read-out: Activity
HUVEC [3] = assay: (§3) Radioprotective activity against 5 Gy gamma radiation-mediated cell damage in HUVEC assessed as viable cells at 0.1 uM preincubated for 2 hrs followed by 5 Gy gamma irradiation and measured after 24 hrs by annexin-V-FITC/propidium iodide staining-based flow cytometric method (reference value: 65.8%); type: functional; details: Homo sapiens, light or radiation study, read-out: Activity
HUVEC [4] = assay: as §1, with “late apoptotic” for “necrotic”, “9.5%)” for “3.5%)”; type: functional, Homo sapiens
HUVEC [5] = assay: as §1, with “early apoptotic” for “necrotic”, “0.01” for “1”, “21.2%)” for “3.5%)”; type: functional, Homo sapiens
HUVEC [6] = assay: Radioprotective activity against 5 Gy gamma radiation-mediated cell damage in HUVEC assessed as increase in cell survival at 0.01 to 10 uM preincubated for 2 hrs followed by 5 Gy gamma irradiation and measured after 48 hrs by MTT assay; type: functional, cell-based; details: Homo sapiens
HUVEC [7] = assay: as §1, with “0.01” for “1”; type: functional, Homo sapiens
HUVEC [8] = assay: as §3, with “early apoptotic” for “viable”, “21.2%)” for “65.8%)”; type: functional, Homo sapiens
HUVEC [9] = assay: as §1, with “0.1” for “1”; type: functional, Homo sapiens
HUVEC [10] = assay: as §3, with “late apoptotic” for “viable”, “9.5%)” for “65.8%)”; type: functional, Homo sapiens
HUVEC [11] = assay: as §1, with “late apoptotic” for “necrotic”, “0.01” for “1”, “9.5%)” for “3.5%)”; type: functional, Homo sapiens
HUVEC [12] = assay: as §1, with “early apoptotic” for “necrotic”, “21.2%)” for “3.5%)”; type: functional, Homo sapiens
HUVEC [13] = assay: Cytotoxicity against HUVEC at <10 uM after 24 hrs by MTT assay; type: cell-based; details: human
HUVEC [14] = assay: as §2, with “0.01” for “1”; type: functional; details: Homo sapiens, light or radiation study, read-out: Activity
HUVEC [15] = assay: Cytotoxicity against HUVEC after 24 hrs by MTT assay; type: cell-based; details: human
HUVEC [16] = assay: Radioprotective activity against 5 Gy gamma radiation-mediated cell damage in HUVEC assessed as decrease in Bax levels at 0.1 to 10 uM by Western blot method; type: functional, cell-based; details: Homo sapiens
HUVEC [17] = assay: (§4) Radioprotective activity against 5 Gy gamma radiation-mediated cell damage in HUVEC assessed as necrotic cells at 10 uM preincubated for 2 hrs followed by 5 Gy gamma irradiation and measured after 24 hrs by annexin-V-FITC/propidium iodide staining-based flow cytometric method (reference value: 3.5%); type: functional, Homo sapiens
HUVEC [18] = assay: as §4, with “early apoptotic” for “necrotic”, “21.2%)” for “3.5%)”; type: functional, Homo sapiens
HUVEC [19] = assay: Radioprotective activity against 5 Gy gamma radiation-mediated cell damage in HUVEC assessed as viable cells at 10 uM preincubated for 2 hrs followed by 5 Gy gamma irradiation and measured after 24 hrs by annexin-V-FITC/propidium iodide staining-based flow cytometric method (reference value: 65.8%); type: functional; details: Homo sapiens, light or radiation study, read-out: Activity
HUVEC [20] = assay: Radioprotective activity against 5 Gy gamma radiation-mediated cell damage in HUVEC assessed as reduction of phopsho-p53 levels at 0.1 to 10 uM by Western blot method; type: functional, cell-based; details: Homo sapiens
HUVEC [21] = assay: Radioprotective activity against 5 Gy gamma radiation-mediated cell damage in HUVEC assessed as increase in cell survival at 0.1 to 10 uM preincubated for 2 hrs followed by 5 Gy gamma irradiation and measured after 48 hrs by MTT assay; type: functional, cell-based; details: Homo sapiens
HUVEC [22] = assay: as §4, with “late apoptotic” for “necrotic”, “9.5%)” for “3.5%)”; type: functional, Homo sapiens
HUVEC [23] = assay: Radioprotective activity against 5 Gy gamma radiation-mediated cell damage in HUVEC assessed as decrease in caspase-3 activation at 0.1 to 10 uM by Western blot method; type: functional, cell-based; details: Homo sapiens
HUVEC [24] = assay: Radioprotective activity against 5 Gy gamma radiation-mediated cell damage in HUVEC assessed as reduction of total p53 levels at 0.1 to 10 uM by Western blot method; type: functional, cell-based; details: Homo sapiens
HUVEC [25] = assay: Radioprotective activity against 5 Gy gamma radiation-mediated cell damage in HUVEC assessed as increase in Bcl-2 levels at 0.1 to 10 uM by Western blot method; type: functional, cell-based; details: Homo sapiens
HUVEC [26] = assay: Radioprotective activity against 5 Gy gamma radiation-mediated cell damage in HUVEC assessed as cell survival at 0.1 uM preincubated for 2 hrs followed by 5 Gy gamma irradiation and measured after 48 hrs by MTT assay relative to control; type: functional; details: Homo sapiens, light or radiation study, read-out: Survival
HUVEC [27] = assay: Radioprotective activity against 5 Gy gamma radiation-mediated cell damage in HUVEC assessed as increase in cell survival at 0.1 to 10 uM after 48 hrs by MTT assay; type: functional, cell-based; details: Homo sapiens
HUVEC [28] = assay: Radioprotective activity against 5 Gy gamma radiation-mediated cell damage in HUVEC assessed as reduction of total p53 levels at 0.01 to 1 uM by Western blot method; type: functional, cell-based; details: Homo sapiens
HUVEC [29] = assay: Radioprotective activity against 5 Gy gamma radiation-mediated cell damage in HUVEC assessed as reduction of phopsho-p53 levels at 0.01 to 1 uM by Western blot method; type: functional, cell-based; details: Homo sapiens
HUVEC [30] = assay: Radioprotective activity against 5 Gy gamma radiation-mediated cell damage in HUVEC assessed as decrease in Bax levels at 0.01 to 1 uM by Western blot method; type: functional, cell-based; details: Homo sapiens
HUVEC [31] = assay: Radioprotective activity against 5 Gy gamma radiation-mediated cell damage in HUVEC assessed as increase in Bcl-2 levels at 0.01 to 1 uM by Western blot method; type: functional, cell-based; details: Homo sapiens
HUVEC [32] = assay: Radioprotective activity against 5 Gy gamma radiation-mediated cell damage in HUVEC assessed as decrease in caspase-3 activation at 0.01 to 1 uM by Western blot method; type: functional, cell-based; details: Homo sapiens
HUVEC [33] = assay: Radioprotective activity against 5 Gy gamma radiation-mediated cell damage in HUVEC assessed as increase in cell survival at 0.01 to 1 uM after 48 hrs by MTT assay; type: functional, cell-based; details: Homo sapiens

CC1(C)CC(OC(=O)c2ccc(/C=C/S(=O)(=O)Cc3ccc(F)cc3)cc2)CC(C)(C)N1[O]
Activity (HUVEC [1]): 1%
viability at 1 µM (HUVEC [2]): 90.8%
viability at 0.1 µM (HUVEC [3]): 88.8%
Activity (HUVEC [4]): 1.4%
Activity (HUVEC [5]): 13%
Activity (HUVEC [6]): Active
Activity (HUVEC [7]): 1.9%
Activity (HUVEC [8]): 7.1%
Activity (HUVEC [9]): 1.4%
Activity (HUVEC [10]): 2.7%
Activity (HUVEC [11]): 4%
Activity (HUVEC [12]): 6.8%
Activity (HUVEC [13]): Non-Toxic
viability at 0.01 µM (HUVEC [14]): 81%

Cc1ccc(/C=C/S(=O)(=O)Cc2ccc(Cl)cc2)cc1
Activity (HUVEC [15]): Toxic

Cc1ccc(CS(=O)(=O)/C=C/c2ccc(C(=O)O)cc2)cc1
Activity (HUVEC [15]): Toxic

O=C(O)c1ccc(/C=C/S(=O)(=O)Cc2ccc(F)cc2)cc1
Activity (HUVEC [1]): 1.6%
viability at 1 µM (HUVEC [2]): 85.6%
Activity (HUVEC [16]): Active
viability at 0.1 µM (HUVEC [3]): 90.4%
Activity (HUVEC [4]): 2.3%
Activity (HUVEC [8]): 7.3%
Activity (HUVEC [17]): 1%
Activity (HUVEC [18]): 4.7%
viability at 10 µM (HUVEC [19]): 93.4%
Activity (HUVEC [9]): 1.5%
Activity (HUVEC [20]): Active
Activity (HUVEC [21]): inactive
Activity (HUVEC [10]): 0.8%
Activity (HUVEC [22]): 1%
Activity (HUVEC [12]): 10.5%
Activity (HUVEC [23]): Active
Activity (HUVEC [24]): Active
Activity (HUVEC [25]): Active
Activity (HUVEC [15]): Toxic

O=C(O)c1ccc(/C=C/S(=O)(=O)Cc2ccc(OC(F)(F)F)cc2)cc1
Activity (HUVEC [1]): 3.4%
viability at 1 µM (HUVEC [2]): 81.9%
Activity (HUVEC [16]): Active
viability at 0.1 µM (HUVEC [26]): 50%
viability at 0.1 µM (HUVEC [3]): 83.3%
Activity (HUVEC [4]): 6.2%
Activity (HUVEC [27]): Active
Activity (HUVEC [8]): 7.8%
Activity (HUVEC [17]): 3%
Activity (HUVEC [18]): 7%
viability at 10 µM (HUVEC [19]): 81.9%
Activity (HUVEC [9]): 4.3%
Activity (HUVEC [20]): Active
Activity (HUVEC [10]): 4.7%
Activity (HUVEC [22]): 8.1%
Activity (HUVEC [12]): 8.5%
Activity (HUVEC [23]): Active
Activity (HUVEC [24]): Active
Activity (HUVEC [25]): Active
Activity (HUVEC [15]): Toxic

O=C(O)c1ccc(/C=C/S(=O)(=O)Cc2ccc(C(F)(F)F)cc2)cc1
Activity (HUVEC [15]): Toxic

O=S(=O)(/C=C/c1ccccc1)Cc1ccc(Cl)cc1
Activity (HUVEC [15]): Toxic

O=S(=O)(/C=C/c1ccc(-c2ccccc2)cc1)Cc1ccc(Cl)cc1
Activity (HUVEC [15]): Toxic

CC(C)(C)c1ccc(CS(=O)(=O)/C=C/c2ccc(C(=O)O)cc2)cc1
Activity (HUVEC [15]): Toxic

COc1ccc(/C=C/S(=O)(=O)Cc2ccc(Cl)cc2)cc1
Activity (HUVEC [15]): Toxic

CC(c1ccccc1)S(=O)(=O)/C=C/c1ccc(C(=O)O)cc1 (configuration not stated)
Activity (HUVEC [27]): Active
Activity (HUVEC [21]): Active
Activity (HUVEC [15]): Toxic

COc1ccc(CS(=O)(=O)/C=C/c2ccc(C(=O)O)cc2)cc1
Activity (HUVEC [15]): Toxic

CC1(C)CC(OC(=O)c2ccc(/C=C/S(=O)(=O)Cc3ccc(OC(F)(F)F)cc3)cc2)CC(C)(C)N1[O]
Activity (HUVEC [1]): 1.7%
viability at 1 µM (HUVEC [2]): 90.3%
viability at 0.1 µM (HUVEC [3]): 84.7%
Activity (HUVEC [4]): 1.1%
Activity (HUVEC [5]): 15%
Activity (HUVEC [6]): inactive
Activity (HUVEC [7]): 1.1%
Activity (HUVEC [28]): Active
Activity (HUVEC [29]): Active
Activity (HUVEC [8]): 12.7%
Activity (HUVEC [30]): Active
Activity (HUVEC [9]): 0.6%
Activity (HUVEC [31]): Active
Activity (HUVEC [10]): 2%
Activity (HUVEC [11]): 1.4%
Activity (HUVEC [12]): 6.9%
Activity (HUVEC [32]): Active
Activity (HUVEC [13]): Non-Toxic
Activity (HUVEC [33]): Active
viability at 0.01 µM (HUVEC [14]): 82.5%

CC(c1ccccc1)S(=O)(=O)/C=C/c1ccc(C(=O)OC2CC(C)(C)N([O])C(C)(C)C2)cc1 (configuration not stated)
Activity (HUVEC [13]): Non-Toxic

CC(C)(C)c1ccc(CS(=O)(=O)/C=C/c2ccc(C(=O)OC3CC(C)(C)N([O])C(C)(C)C3)cc2)cc1
Activity (HUVEC [13]): Non-Toxic

CC1(C)CC(OC(=O)c2ccc(/C=C/S(=O)(=O)Cc3ccc(Cl)cc3)cc2)CC(C)(C)N1[O]
Activity (HUVEC [1]): 2.1%
viability at 1 µM (HUVEC [2]): 83.3%
viability at 0.1 µM (HUVEC [3]): 90%
Activity (HUVEC [4]): 2.9%
Activity (HUVEC [5]): 11.2%
Activity (HUVEC [6]): Active
Activity (HUVEC [7]): 1.9%
Activity (HUVEC [28]): Active
Activity (HUVEC [29]): Active
Activity (HUVEC [8]): 6.2%
Activity (HUVEC [30]): Active
Activity (HUVEC [9]): 1.3%
Activity (HUVEC [31]): Active
Activity (HUVEC [10]): 2.5%
Activity (HUVEC [11]): 2.2%
Activity (HUVEC [12]): 11.7%
Activity (HUVEC [32]): Active
Activity (HUVEC [13]): Non-Toxic
Activity (HUVEC [33]): Active
viability at 0.01 µM (HUVEC [14]): 84.7%

O=C(O)c1ccc(/C=C/S(=O)(=O)Cc2ccccc2)cc1
Activity (HUVEC [15]): Toxic
